# Target: T1, human active recombinant p38 (p38α) (Homo sapiens, UniProt Q16539)
# T1 construct: 6His
# Experiment: p38 Alpha Enzyme Assay (AlphaScreen, biotinylated-ATF2 substrate)
# Format: biochemical
# Conditions: means of replicate determinations; pre-incubated for 4 hours at 37° C.; SD of assay between 0.2 and 0.3 log units
# T1 sequence (Q16539 whole entry): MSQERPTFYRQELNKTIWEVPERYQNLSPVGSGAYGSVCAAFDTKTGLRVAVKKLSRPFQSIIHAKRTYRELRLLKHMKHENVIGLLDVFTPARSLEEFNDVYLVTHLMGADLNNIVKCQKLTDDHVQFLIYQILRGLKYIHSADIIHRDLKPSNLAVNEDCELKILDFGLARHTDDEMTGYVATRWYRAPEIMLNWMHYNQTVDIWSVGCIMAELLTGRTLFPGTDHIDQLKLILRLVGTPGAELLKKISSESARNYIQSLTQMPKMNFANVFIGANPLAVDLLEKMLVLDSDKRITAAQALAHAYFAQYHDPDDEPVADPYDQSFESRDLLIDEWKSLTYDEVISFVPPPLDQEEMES
row,Compound,p38α inhibition Mean pIC50
1,"N-Cyclopropyl-3-fluoro-5-(2-[2-(hydroxymethyl)-2-methylbutyl]-4-{[(3S)-3-methylpiperazin-1-yl]methyl}-1-oxo-1,2-dihydroisoquinolin-6-yl)-4-methylbenzamide [Example 37]",9.5

# Same assay, conditions: means of replicate determinations; pre-incubated for 4 hours at 37° C.; SD of assay between 0.2 and 0.3 log units; read-out: p38α inhibition Mean pIC50 (converted)
row,Compound,IC50 [nM]
1,"Cc1c(F)cc(C(=O)NC2CC2)cc1-c1ccc2c(=O)n(CC(C)(C)CO)cc(CN3CCNC[C@H]3C)c2c1 [Example 26, N-Cyclopropyl-3-fluoro-5-[2-(3-hydroxy-2,2-dimethylpropyl)-4-{[(2R)-2-methylpiperazin-1-yl]methyl}-1-oxo-1,2-dihydroisoquinolin-6-yl]-4-methylbenzamide]",0.251
2,"Cc1c(F)cc(C(=O)NC2CC2)cc1-c1ccc2c(=O)n(CC(C)(C)CO)cc(S(=O)(=O)NCCN(C)C)c2c1 [Example 56, N-cyclopropyl-3-[4-{[2-(dimethylamino)ethyl]sulfamoyl}-2-(3-hydroxy-2,2-dimethylpropyl)-1-oxo-1,2-dihydroisoquinolin-6-yl]-5-fluoro-4-methylbenzamide]",0.794
3,Cc1c(F)cc(C(=O)NC2CC2)cc1-c1ccc2c(=O)n(CC3(CO)CC3)cc(S(=O)(=O)N3CCCNCC3)c2c1 [Example 57],0.158
4,"Cc1c(F)cc(C(=O)NC2CC2)cc1-c1ccc2c(=O)n(CC(C)(C)CO)cc(SC3CCNCC3)c2c1 [Example 58, N-Cyclopropyl-3-fluoro-5-[2-(3-hydroxy-2,2-dimethylpropyl)-1-oxo-4-(piperidin-4-ylsulfanyl)-1,2-dihydroisoquinolin-6-yl]-4-methylbenzamide]",0.316
5,"Cc1c(F)cc(C(=O)NC2CC2)cc1-c1ccc2c(=O)n(CC(C)(C)CO)cc([S+]([O-])C3CCNCC3)c2c1 (stereo not shown) [Example 59, N-Cyclopropyl-3-fluoro-5-[2-(3-hydroxy-2,2-dimethylpropyl)-1-oxo-4-(piperidin-4-ylsulfinyl)-1,2-dihydroisoquinolin-6-yl]-4-methylbenzamide]",0.501
6,"Cc1c(F)cc(C(=O)NC2CC2)cc1-c1ccc2c(=O)n(CC(C)(C)CO)cc(S(=O)(=O)C3CCNCC3)c2c1 [Example 60, N-Cyclopropyl-3-fluoro-5-[2-(3-hydroxy-2,2-dimethylpropyl)-1-oxo-4-(piperidin-4-ylsulfonyl)-1,2-dihydroisoquinolin-6-yl]-4-methylbenzamide]",0.398
7,"Cc1c(F)cc(C(=O)NC2CC2)cc1-c1ccc2c(=O)n(CC3CC3)cc(SC3CCNCC3)c2c1 [Example 61, N-Cyclopropyl-3-[2-(cyclopropylmethyl)-1-oxo-4-(piperidin-4-ylsulfanyl)-1,2-dihydroisoquinolin-6-yl]-5-fluoro-4-methylbenzamide]",0.1
8,"Cc1c(F)cc(C(=O)NC2CC2)cc1-c1ccc2c(=O)n(CC3CC3)cc(S(=O)(=O)C3CCNCC3)c2c1 [Example 62, N-Cyclopropyl-3-[2-(cyclopropylmethyl)-1-oxo-4-(piperidin-4-ylsulfonyl)-1,2-dihydroisoquinolin-6-yl]-5-fluoro-4-methylbenzamide]",0.2
9,Cc1c(F)cc(C(=O)NC2CC2)cc1-c1ccc2c(=O)n(CC3(CO)CC3)cc(SC[C@@H]3CCCNC3)c2c1 [Example 63],0.398
10,"Cc1c(F)cc(C(=O)NC2CC2)cc1-c1ccc2c(=O)n(CC3(CO)CC3)cc(SC3CCNCC3)c2c1 [Example 64, N-Cyclopropyl-3-fluoro-5-[2-{[1-(hydroxymethyl)cyclopropyl]methyl}-1-oxo-4-(piperidin-4-ylsulfanyl)-1,2-dihydroisoquinolin-6-yl]-4-methylbenzamide]",0.1
11,"Cc1c(F)cc(C(=O)NC2CC2)cc1-c1ccc2c(=O)n(CC(C)(C)CO)cc(S[C@@H]3CCNC3)c2c1 [Example 65, N-Cyclopropyl-3-fluoro-5-{2-(3-hydroxy-2,2-dimethylpropyl)-1-oxo-4-[(3R)-pyrrolidin-3-ylsulfanyl]-1,2-dihydroisoquinolin-6-yl}-4-methylbenzamide]",< 0.0631
12,"Cc1c(F)cc(C(=O)NC2CC2)cc1-c1ccc2c(=O)n(CC(C)(CO)CO)cc(SC3CCNCC3)c2c1 [Example 66, N-Cyclopropyl-3-fluoro-5-{2-[3-hydroxy-2-(hydroxymethyl)-2-methylpropyl]-1-oxo-4-(piperidin-4-ylsulfanyl)-1,2-dihydroisoquinolin-6-yl}-4-methylbenzamide]",0.2
13,"Cc1c(F)cc(C(=O)NC2CC2)cc1-c1ccc2c(=O)n(CC(C)(C)CO)cc(S[C@H]3CCN[C@H](CO)C3)c2c1 [Example 67, N-Cyclopropyl-3-fluoro-5-[2-(3-hydroxy-2,2-dimethylpropyl)-4-{[(2S,4S)-2-(hydroxymethyl)piperidin-4-yl]sulfanyl}-1-oxo-1,2-dihydroisoquinolin-6-yl]-4-methylbenzamide]",0.251

# Test system: LPS-induced BAL neutrophilia
# Experiment: LPS Challenge Assay (neutrophil migration into the airway after aerosol LPS challenge)
# Format: in vivo, Han Wistar (HW) rat
# Conditions: Han Wistar rat; nose-only inhalation; nebuliser concentration of <1 mg/mL; dosed 0.5 hour before the LPS challenge
# Experimental: The following is a description of an assay that may be used to evaluate a compounds activity on neutrophil migration into the airway after aerosol challenge with lipopolysaccharide (LPS) in the Han Wistar (HW) rat.
# LPS challenge in HW rats caused an influx of inflammatory cells into the lungs. Rats were challenged either with an aerosol of 0.9% w/v saline or 0.5 mg/mL LPS in 0.9% saline for 30 min. Rats were dosed with vehicle or test compound by nose-only inhalation administration at various time points before challenge depending upon the experimental protocol. Test compound groups could either be the same compound at different doses or single doses of different compounds. […]
# The rats were euthanized with 200 mg pentobarbitone sodium at various time points after challenge depending upon the nature of the study, but typically 4 hr after LPS challenge. […] An aliquot of BAL fluid was removed and counted on the Sysmex XT2000Vet automated cell counter (Sysmex UK, Milton Keynes). […] Cells were classified as eosinophils, neutrophils or mononuclear cells (mononuclear cells included monocytes, macrophages and lymphocytes) and were expressed as a percentage of the total cell count.
# Compounds were scored as active if a statistically significant (i.e. p<0.05) inhibition of the LPS-induced BAL neutrophilia response was observed.
row,Compound,"activity in LPS Challenge Assay (active = statistically significant, p<0.05, inhibition of the LPS-induced BAL neutrophilia response)"
1,"Cc1c(F)cc(C(=O)NC2CC2)cc1-c1ccc2c(=O)n(CC(C)(C)CO)cc(CN3CCNC[C@H]3C)c2c1 [Example 26, N-Cyclopropyl-3-fluoro-5-[2-(3-hydroxy-2,2-dimethylpropyl)-4-{[(2R)-2-methylpiperazin-1-yl]methyl}-1-oxo-1,2-dihydroisoquinolin-6-yl]-4-methylbenzamide]",active

# Test system: mouse lymphoma L5178Y cells
# Experiment: In Vitro Micronucleus Assay (genotoxicity)
# Format: cell-based
# Conditions: 3 hours exposure in the presence or absence of S9 mix, up to 1 mmol/L or solubility limit
# Description: In Vitro Micronucleus Assay
# The following is a description of an assay that may be used to assess the genotoxicity of a compound using mouse lymphoma […] cells.
# The in vitro micronucleus assay (IVM) detects chemicals that induce chromosomal damage by measuring the formation of small intra cell membrane-bound DNA fragments. At AstraZeneca, L5178Y cells are used as these are the cells of choice for follow on regulatory mammalian cell in vitro genotoxicity screening. The test system is simple to perform and produces rapid results. The IVM is suitable as a preliminary genetic toxicity-screening assay prior to compound selection.
# A wide range of test chemical concentrations, up to 1 mmol/L or the chemicals solubility limit, is tested. […] Where possible, 20 hours after treatment exposure, at least three concentrations giving acceptable levels of toxicity (greater than 10% survival as measured by two day relative suspension growth) are selected for analysis of micronucleated cells. […] Where possible, a total of at least 1000 cells per culture are scored.
# For any concentration, an increase in the number of micronucleated cells is considered to be significant if the increase is at least 2-fold the concurrent solvent control level, and the number of micronucleated cells is greater than 8 per thousand cells scored.
row,Compound,activity in micronucleus assay (significant = at least 2-fold solvent control and more than 8 micronucleated cells per thousand)
1,"Cc1c(F)cc(C(=O)NC2CC2)cc1-c1ccc2c(=O)n(CC(C)(C)CO)cc(CN3CCNC[C@H]3C)c2c1 [Example 26, N-Cyclopropyl-3-fluoro-5-[2-(3-hydroxy-2,2-dimethylpropyl)-4-{[(2R)-2-methylpiperazin-1-yl]methyl}-1-oxo-1,2-dihydroisoquinolin-6-yl]-4-methylbenzamide]",inactive
